{
  "source": "patent US20230271969A1",
  "about": "“NITROGEN-CONTAINING FUSED RING DERIVATIVE INHIBITOR, PREPARATION METHOD THEREFOR AND USE THEREOF” (Shanghai Hansoh Biomedical Co., Ltd., priority 2020, published 2023)",
  "key": {"[1]": {"assay": "Pharmacokinetic assay in SD rats (plasma and brain tissue)", "type": "in vivo", "conditions": "rat, po, male SD rats, p.o. 5 mg/kg; for AUC(0-t): read-out: Area under curve AUC0-t; for Tmax: read-out: Peak time tmax; for Cmax: read-out: Plasma concentration Cmax", "method": "Test Example 4. Pharmacokinetic Assays in SD Rats\nSD rats were used as test animals. The in vivo (plasma and brain tissue) pharmacokinetic behavior of the compounds of the present invention was investigated by oral administration of the compound in rats at a dose of 5 mg/kg.\nMale SD rats (21 animals per group), purchased from Shanghai JieSiJie Laboratory Animal Co., Ltd., under the Animal Production License Number of SCXK (Shanghai) 2013-0006 No. 311620400001794.\nThe experimental drug was dissolved in 0.5% CMC-Na (1% Tween 80) by sonication to formulate a clear solution or a homogeneous suspension.\nAfter an overnight fast, male SD rats (21 animals per group) were administered p.o. with the experimental drug at an administration dose of 5 mg/kg and the administration volume of 10 mL/kg.\nRats were sacrificed with CO2 at 0, 0.5, 1, 2, 4, 8 and 24 hours before and after the drug administration. 8 mL of blood was collected by cardiac puncture, placed in EDTA-K2 tubes, and centrifuged at 4° C. at 6,000 rpm for 6 min. Plasma was separated and stored at −80° C. The whole brain tissue was dissected and weighed, and then placed in a 2 mL centrifuge tube and stored at −80° C.\n2.6 Sample Processing: • 1) 160 μL of acetonitrile was added to 40 μL of plasma sample for precipitation. After mixing, the sample was centrifuged at 3500×g for 5-20 minutes. • 2) 90 μL of acetonitrile containing internal standard (100 ng/mL) was added to 30 μL of plasma or brain homogenate sample for precipitation. After mixing, the sample was centrifuged at 13,000 rpm for 8 minutes. • 3) 70 μL of water was added to 70 μL of treated supernatant, and mixed by vortex for 10 minutes. Then 20 μL of the sample was analyzed by LC/MS/MS to determine the concentration of the compound to be tested. The LC/MS/MS instrument for analysis was AB Sciex API 4000 Qtrap.\n2.7 Liquid Chromatography Analysis: • Liquid chromatography conditions: Shimadzu LC-20AD pump • Chromatographic column: Agilent ZORBAX XDB-C18 (50×2.1 mm, 3.5 μm) Mobile phase: Eluent A was 0.1% formic acid in water, and Eluent B was acetonitrile. • Flow rate: 0.4 mL/min • Elution time: 0-4.0 minutes, the eluate was as follows:\nThe major pharmacokinetic parameters were calculated by using WinNonlin 6.1, and the results of the pharmacokinetic experiments in rats were shown in Table 3 below: […]"}, "[2]": {"tested_on": "Senktide-induced bilateral ovariectomy rats", "assay": "Tail skin temperature in a Senktide-induced bilateral ovariectomy rat model", "type": "in vivo", "conditions": "OVX SD rats, oral 30 mg/kg, 30 min before s.c. Senktide, tail skin temperature over 75 min", "source_text": "Pharmacodynamic Study of the Test Compounds on Tail Skin Temperature in a Senktide-Induced Bilateral Ovariectomy Rat Model\nTo evaluate the effect of the test compounds on tail skin temperature in Senktide-induced bilateral ovariectomy rats.\n2.3. Experimental Animals • Ten-Week-old female bilateral ovariectomy SD rats were purchased from Beijing Vital River Laboratory Animal Technology Co., Ltd. The animals were housed in a SPF grade animal facility with 5 SD rats per cage. The cages, bedding, feed and water were disinfected at high temperatures before use. All animals had free access to food and water.\nTen-week-old female SD rats were subjected to bilateral ovariectomy and recovered for two weeks, and then randomly divided into negative control group, model group and drug administration group (8 rats per group), based on body weight. The probe was attached to the dorsal surface of the rat tail with medical tape, 1-2 cm away from the tailhead of the rat.\nThe vehicle was administered orally to the negative control group and the model group, and different test compounds were administered orally to each drug administration group at a dose of 30 mg/kg and a volume of 10 mL/kg.\nThirty minutes after the oral administration of the vehicle or test compound, the negative control group was injected subcutaneously with normal saline (at a volume of 5 mL/kg); the model group and each drug administration group were injected subcutaneously with 0.2 mg/mL of Senktide (at a volume of 5 mL/kg) to induce the hot flashes-like symptom.\nThe change in tail skin temperature (ΔTST) at each time point relative to time point 0 was calculated, the ΔTST-time curve of the change in tail skin temperature was plotted, and the area under curve (AUCΔTST) was calculated. ΔTST=TSTn−TST0, TST0 is the tail skin temperature at 0 minute before the subcutaneous injection of normal saline or Senktide; TSTn is the tail skin temperature at the n minute after the subcutaneous injection.\nAUCΔTST=Σ(ΔTSTn+ΔTSTn+5)*5/2"}},
  "note": "Like-named read-outs stand apart in the source and are kept apart here.",
  "data": [
    {"molecule": "C[C@@H]1c2nnc(-c3nc4cnc(Cl)cc4s3)n2CCN1C(=O)c1ccc(F)cc1", "note": "[Example 37, (R)-(3-(6-Chlorothiazolo[4,5-c]pyridin-2-yl)-8-methyl-5,6-dihydro-[1,2,4]triazolo[4,3-a]pyrazin-7(8H)-yl)(4-fluorophenyl)methanone]", "values": [
      {"measurement": "AUC(0-t)", "setting": "[1]; Brain", "result": 4200, "unit": "ng·h/mL"},
      {"measurement": "Tmax", "setting": "[1]; Brain", "result": 4, "unit": "h"},
      {"measurement": "Cmax", "setting": "[1]; Brain", "result": 1640, "unit": "ng/mL"},
      {"measurement": "AUC(0-t)", "setting": "[1]; Plasma", "result": 77800, "unit": "ng·h/mL"},
      {"measurement": "Tmax", "setting": "[1]; Plasma", "result": 8, "unit": "h"},
      {"measurement": "Cmax", "setting": "[1]; Plasma", "result": 4000, "unit": "ng/mL"}
    ]},
    {"molecule": "[2H]c1cc(C(=O)N2CCn3c(-c4nc(Cl)ns4)nnc3[C@H]2C)ccc1F", "note": "[Example 56, (R)-(3-(3-Chloro-1,2,4-thiadiazol-5-yl)-8-methyl-5,6-dihydro-[1,2,4]triazolo[4,3-a]pyrazin-7(8H)-yl)(4-fluorophenyl-3-d)methanone]", "values": [
      {"measurement": "AUC(0-t)", "setting": "[1]; Brain", "result": 2710, "unit": "ng·h/mL"},
      {"measurement": "Tmax", "setting": "[1]; Brain", "result": 1, "unit": "h"},
      {"measurement": "Cmax", "setting": "[1]; Brain", "result": 798, "unit": "ng/mL"},
      {"measurement": "AUC(0-t)", "setting": "[1]; Plasma", "result": 6150, "unit": "ng·h/mL"},
      {"measurement": "half-life", "setting": "[1]; Plasma, read-out: Half life t1/2 (converted)", "result": 3.1, "unit": "h"},
      {"measurement": "MRT", "setting": "[1]; Plasma, read-out: Mean residence time MRT", "result": 5.1, "unit": "h"},
      {"measurement": "Tmax", "setting": "[1]; Plasma", "result": 2, "unit": "h"},
      {"measurement": "Cmax", "setting": "[1]; Plasma", "result": 1170, "unit": "ng/mL"},
      {"measurement": "AUCΔTST", "setting": "[2]", "result": "53.8 ± 19.8", "unit": "°C · min"}
    ]}
  ]
}
